Data: PMC8537218, “Discovery of a Novel Class of Norovirus Inhibitors with High Barrier of Resistance” (Pharmaceuticals, 2021)
“And” between values parts separate entries of the source, which are not always exact repeats. Equal entries are not always repeated. “Also recorded” adds a separate entry of the source. Where two headings read alike, the source gives them in different places.

Columns and labels:
MNV [1] = test: Time-of-drug-addition assay (TOA) in MNV-infected RAW 264.7 cells; type: cell-based, Murine norovirus
Experimental: RAW 264.7 cells (4 × 10^5 cells/mL) were infected with MNV (MOI of 1). After 1 h at 4 °C, cells were washed with cold (4 °C) DMEM to remove unbound viruses. Cells were incubated at 37 °C to start the infection. To study the replication kinetics of MNV supernatant and cells were harvested, from untreated cultures, every 2 h until 24 h post-infection (pi) and viral RNA was quantified by RT-qPCR. In parallel, another set of infected cultures were treated with compound. The compound was added at 2 h intervals and cultures were further incubated until 24 h pi, supernatant and cells were collected separately for determination of the viral RNA by RT-qPCR. The isolation of the extracellular MNV RNA from cell culture supernatant was done by the NucleoSpin RNA Virus Kit (Macherey–Nagel), and the intracellular RNA was extracted from cells by the RNeasy kit (Qiagen).

[2] = tested on: HuNoV GI.1 replicon (Norwalk replicon); test: HuNoV GI.1 replicon assay in HG23 cells (RT-qPCR); type: cell-based, Human norovirus
Experimental: HuNoV GI.1 replicon: The experiment was performed as described earlier with minor modifications. In short, HG23 cells (7.5 × 10^2 cells/well) were seeded into the wells of a 96-well plate without G418 (Geneticin Selective Antibiotic). After 24 h of incubation, serial dilutions of compounds were added. Cells were further incubated for 72 h, then cells were collected for RNA load quantification by RT-qPCR. To determine relative levels of Norwalk virus replicon RNA, β-actin was used as a normalizer and ratios were calculated as previously described.

MNV RdRp = MNV RdRp (Norovirus, UniProt Q80J95); test: In vitro enzymatic inhibition assay with MNV RdRp; type: biochemical, Murine norovirus; settings: 3.4 µM MNV RdRp, poly(U) template, 100 µM ATP, compound 0 to 100 µM
Experimental: Compound 6 was tested to determine its effects on the polymerase activity. The formation of dsRNA, from a single-stranded poly(U) template (Sigma-Aldrich, 10 µg) and 100 µM ATP, was followed for 1 h at 30 °C on a TECAN Infinite 200 PRO microplate reader, measuring the growth of PicoGreen fluorescence (Ex/Em = 485/530 nm) after the addition of 3.4 µM MNV RdRp and of increasing amounts of compound 6 (from 0 to 100 µM), in a reaction mixture containing 20 mM Tris/HCl (pH 7.5), 25 mM NaCl, 0,3 mM MnCl2, 5 mM MgCl2, 1 mM DTT, 2 U RiboLock Ribonuclease inhibitor (Life technologies). The final fluorescence values were calculated as the average of four independent experiments. Measurement of the activity (i.e., linear slope of fluorescence increase in time) vs. compound 6 concentration was used to estimate the IC50 value of the compound with the program GraFit5 (Erithacus software).

[3] = tested on: compound 6res MNV variants; test: Antiviral assay on selected compound 6res MNV variants in RAW 264.7 cells; type: cell-based, Murine norovirus
Experimental: RAW 264.7 cells (1 × 10^4 cells/well) were seeded into the wells of 96-well plate and were infected with MNV.CW1 in the presence of a dilution series of compounds. When CPE was visible in the virus control (no compound), all the wells were scored for visible CPE. Virus was harvested from the wells in which CPE was observed under the highest compound pressure. The resistant virus was then diluted to 1:5 and used to infect a new 96-well plate under the same conditions to continue. […] MNV^res viruses were analyzed by deep sequencing by the group of Prof. Matthijnssens as described previously. The assembled sequence of the untreated MNV, that was passaged in parallel, was used as reference to align the MNV variants that were under compound pressure.
(§1) The assessment of the antiviral activity of compounds on resistant viruses was performed similarly as the regular antiviral assay on MNV. First, the titer of the resistant viruses was determined by endpoint titration. A concentration of 30× TCID50 was used for each virus in the antiviral assays. RAW 264.7 cells (1 × 10^4 cells/well) were seeded in the presence of a dilution series of compounds and infected. Antiviral activity was determined using the MTS method. The 50% effective concentration (EC50) was defined as the compound concentration that protected 50% of the cells from CPE.

MNV [4] = test: MNV virus yield assay, viral RNA by RT-qPCR; type: cell-based, Murine norovirus; settings: viral RNA levels by RT-qPCR
Experimental: The supernatants of treated or untreated infected cells were harvested. The viral RNA was isolated from supernatant using the NucleoSpin RNA Virus Kit (Macherey–Nagel), according to the manufacturer’s protocol and was quantified by RT-qPCR. A one-step RT-qPCR was performed in a reaction mixture of 20 μL containing 10 μL reaction mix from the iTaq Universal Probes One-Step Kit (Bio-Rad), 0.5 μL reverse transcriptase, 4 μL template RNA, primers, and probe.

[5] = tested on: MNV.CW3/S131T and MNV.CW3/Y154F; test: Antiviral assay on reverse-engineered MNV.CW3 mutant viruses (S131T, Y154F); type: cell-based, Murine norovirus; settings: single mutations S131T or Y154F in MNV backbone
Experimental: The desired mutations were introduced into the MNV.CW3 cDNA clones using the QuikChange II XL mutagenesis kit (Agilent) according to the manufacturer’s instructions. The presence of the desired mutation in the produced construct was confirmed by PCR and sequencing was done by Macrogen Inc. Sequences were analyzed and mutations were detected using the Geneious software.
The MNV.CW3 mutant viral stocks were obtained by transfecting the mutated plasmid pMNV CW3 (kindly provided by Prof. Wobus, University of Michigan) in Huh 7 Lunet cells expressing the MNV receptor CD300lf (kindly provided by Prof. Taube, University of Lübeck). Huh-7 CD300lf cells were cultured under selective pressure of G418. The Huh-7 CD300lf cells were seeded in 6-well plates at a density of 2 × 10^5 cells/mL in 2.5 mL of complete media. After 24 h, the cells were transfected with 2.5 μg of pMNV CW3 plasmid DNA using the TransIT mRNA Transfection Kit (Mirus Bio Corporation) according to the manufacturer’s protocol. Red fluorescent protein (RFP) was used as a positive control for transfection. Transfected cells were incubated for 48 h, cells underwent two freeze thaw cycles and the virus was harvested from the supernatants after centrifugation (10 min, 1000× g) and stored at −80 °C. Virus stocks were passaged for three times on BV-2 cells and followed by two consecutive passages on RAW 264.7 cells. Viral titers were determined by serial dilutions on RAW 264.7 cells seeded in 96-well plates.
as §1

[6] = tested on: Murine norovirus type 1, strain CW1; test: MNV-induced CPE reduction assay (MTS read-out) in RAW 264.7 cells; type: cell-based; settings: MNV CW1, RAW 264.7 cells, read-out: MNV EC50 ± SD
Experimental: Norovirus: The experiment was performed as described earlier. In short, RAW 264.7 cells (1 × 10^4 cells/well) were infected with MNV.CW1 in the presence of a dilution series of compounds. Antiviral activity and cytotoxicity were determined using a colometric assay using 3-(4,5-dimethylthiazol-2-yl)-5-(3-carboxymethoxyphenyl)-2-(4-sulfophenyl)-2H-tetrazolium (MTS). The 50% effective concentration (EC50) was defined as the compound concentration that protected 50% of the cells from CPE. The cell viability % was calculated as (ODtreated/ODCC) […] and the 50% cytotoxic concentration (CC50) was defined as the compound concentration that reduces the number of viable cells by 50%.

Chain of MNV RdRp (Q80J95 1178-1687): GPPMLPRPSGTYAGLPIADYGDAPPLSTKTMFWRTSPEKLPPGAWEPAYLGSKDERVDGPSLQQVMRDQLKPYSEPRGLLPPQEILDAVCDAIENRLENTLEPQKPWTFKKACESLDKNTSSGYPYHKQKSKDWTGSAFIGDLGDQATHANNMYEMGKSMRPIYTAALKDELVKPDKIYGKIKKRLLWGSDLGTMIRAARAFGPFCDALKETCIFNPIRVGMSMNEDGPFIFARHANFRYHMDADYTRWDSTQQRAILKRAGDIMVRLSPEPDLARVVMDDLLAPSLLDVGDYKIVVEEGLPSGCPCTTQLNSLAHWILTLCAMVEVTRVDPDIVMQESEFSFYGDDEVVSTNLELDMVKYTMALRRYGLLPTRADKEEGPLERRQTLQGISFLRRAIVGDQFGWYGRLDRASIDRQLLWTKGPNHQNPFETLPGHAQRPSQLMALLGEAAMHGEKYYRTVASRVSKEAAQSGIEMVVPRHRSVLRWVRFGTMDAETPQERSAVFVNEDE

Structure (SMILES): Cc1cc(C)cc(S(=O)(=O)c2c(C(=O)NCc3ccc(CO)cc3)[nH]c3ccc(Cl)cc23)c1 [compound 6, 5-Chloro-3-((3,5-dimethylphenyl)sulfonyl)-N-(4-(hydroxymethyl)benzyl)-1H-indole-2-carboxamide]
- time of addition after which the antiviral effect was lost (MNV [1]; MNV MOI 1, RAW 264.7 cells, compound added at 2 h intervals): 6–8 h pi
- step of the MNV replication cycle at which the compound acts (MNV [1]; time-of-addition experiment): onset of the viral genome replication
- EC50 ([2]; Norovirus, HG23, 72 h, read-out: HuNoV Replicon EC50 ± SD (µM), Norwalk replicon (human GI.1), HG23 cells, 72 h, replicon RNA by RT-qPCR): 1.24 µM
- EC50 ([2]; Norwalk replicon (human GI.1), HG23 cells, 72 h, replicon RNA by RT-qPCR, read-out: HuNoV Replicon EC50 ± SD): 1.2 µM and ~1.7 µM
- adverse effects on the host cells ([2]; host cells of HuNoV GI.1 replicon assay): without adverse effects on the host cells
- EC50 ([2]; read-out: HuNoV Replicon EC50 ± SD, Norwalk replicon (human GI.1), HG23 cells, 72 h, replicon RNA by RT-qPCR): 1.27 ± 0.76 µM
- direct inhibition of the norovirus polymerase (competition with natural substrate) (MNV RdRp): no direct competition; also recorded: could not directly inhibit the active site of the enzyme
- shift in EC50 ([3]; mutants 1 and 3 together): 6–8 fold
- shift in EC50 values ([3]; resistant variant mutant 1 (first value), after 30 passages): 8.6 fold
- shift in EC50 values ([3]; resistant variant mutant 3, after 30 passages): 6.2 fold
- EC50 (MNV [4]): 210 ± 30 nM
- melting point: 124 to 126 °C
- shift in EC50 / sensitivity of mutant viruses [5]: no shift in EC50
- EC50 ([6]; RAW264.7, concentration inhibiting norovirus induced cell death (CPE) by 50%): 200 ± 100 nM
- EC50 ([6]; concentration inhibiting norovirus induced cell death (CPE) by 50%): 160 ± 60 nM
